According to ChEMBL document CHEMBL1150862, “Synthetic derivatives of abietic acid with radical scavenging activity” (J Nat Prod, 2001):
Activity calls are given as the source filed them. No cut-off for these calls is given here.

System: Radical scavenging activity
Experiment: Antioxidant activity assessed as DPPH radical scavenging activity by spectrophotometric assay
Type: functional

| Structure (SMILES) | Activity |
| --- | --- |
| CC(C)c1c(Nc2ccccc2)cc2c(c1Nc1ccccc1)C[C@@H]1[C@](C)(CCC[C@@]1(C)C(=O)O)C2 | Active |
| Cc1cc(C(C)(C)C)c(O)c(C(C)(C)C)c1 | Active |
| COc1ccc(Nc2cc3c(c([N+](=O)[O-])c2C(C)C)C[C@@H]2[C@](C)(CCC[C@@]2(C)C(=O)O)C3)cc1 | Active |
| COc1ccccc1Nc1cc2c(c(Nc3ccccc3OC)c1C(C)C)C[C@@H]1[C@](C)(CCC[C@@]1(C)C(=O)O)C2 | Active |
| COc1ccc(Nc2cc3c(cc2C(C)C)C[C@@H]2[C@](C)(CCC[C@@]2(C)C(=O)O)C3)cc1 | Active |
| COc1ccc(Nc2c(C(C)C)ccc3c2C[C@@H]2[C@](C)(CCC[C@@]2(C)C(=O)O)C3)cc1 | Active |
| CC(C)c1c(Nc2ccccc2)cc2c(c1N)C[C@@H]1[C@](C)(CCC[C@@]1(C)C(=O)O)C2 | Active |
| COc1ccccc1Nc1cc2c(cc1C(C)C)C[C@@H]1[C@](C)(CCC[C@@]1(C)C(=O)O)C2 | Active |
| CC(C)c1cc2c(cc1Nc1ccccc1)C[C@@]1(C)CCC[C@@](C)(C(=O)O)[C@@H]1C2 | Active |
| COc1ccccc1Nc1cc2c(c(N)c1C(C)C)C[C@@H]1[C@](C)(CCC[C@@]1(C)C(=O)O)C2 | Active |
| COc1ccc(Nc2cc3c(c(N)c2C(C)C)C[C@@H]2[C@](C)(CCC[C@@]2(C)C(=O)O)C3)cc1 | Active |
| COc1ccc(Nc2cc3c(c(Nc4ccc(OC)cc4)c2C(C)C)C[C@@H]2[C@](C)(CCC[C@@]2(C)C(=O)O)C3)cc1 | Active |
| COc1ccccc1Nc1c(C(C)C)ccc2c1C[C@@H]1[C@](C)(CCC[C@@]1(C)C(=O)O)C2 | Active |
| CC(C)c1ccc2c(c1Nc1ccccc1)C[C@@H]1[C@](C)(CCC[C@@]1(C)C(=O)O)C2 | Active |
| COc1ccccc1Nc1cc2c(c([N+](=O)[O-])c1C(C)C)C[C@@H]1[C@](C)(CCC[C@@]1(C)C(=O)O)C2 | Active |
| CC(C)c1c(Nc2ccccc2)cc2c(c1[N+](=O)[O-])C[C@@H]1[C@](C)(CCC[C@@]1(C)C(=O)O)C2 | Active |
